Test results taken from patent publication US6541483B2, “Acridone-derived compounds useful as antineoplastic and antiretroviral agents” (The United States of America as represented by the …, priority 1996, dated 2003).
Like-named read-outs stand apart in the source and are kept apart here.

Tests used:
[1] = test system: human monocyte/macrophage cultures; test: toxicity in monocyte/macrophage cultures; assay type: cell-based; conditions: human monocyte/macrophage cultures; read-out: Mo/Mφ IC50
Procedure: (§1) The antiviral properties of the WMC series of compounds were evaluated. First, all compounds were tested for their ability to inhibit HIV-1 replication in cell culture using the XTT cytoprotection assay. This assay measures the concentration-dependent capacity of compounds to protect CEM-SS cells from the cytopathic effects of HIV-1. […] Thus, temacrazine was the most efficacious compound in the XTT cytoprotection assay. This conclusion was also reached when the compounds were tested for anti-HIV-1 activity against HIV-1ADA in human monocyte/macrophage cultures (Table 1).

HIV-1 mRNA = test: RT-PCR of HIV-1 mRNA expression and splicing after TNFα induction; assay type: cell-based
Procedure: Similar results were seen when temacrazine and TNFα were added simultaneously.
As a control the house keeping gene porphobilinogen deaminase (Hydroxymethylbilane synthase, “PBGD”) was amplified to determine uniformity of loading.

[2] = target: HIV-1 reverse transcriptase (Human immunodeficiency virus type 1 group M subtype B, UniProt P04585); test: reverse transcriptase enzyme activity; assay type: biochemical
Excerpt: (§2) Based on the findings thus far our efforts have focused on biological assays of the temacrazine congener.

HIV-1RF = test: nude mouse hollow fiber model of HIV-1 replication; assay type: in vivo, nude mice
Excerpt: The novel mechanism of action of temacrazine and its broad range of activity against HIV-1 and its high therapeutic indexes led us to assess its in vivo and anti-viral properties in a nude mouse hollow fiber model of HIV-1 replication. Briefly, CEM-SS cells are infected with HIV-1RF and placed into hollow fibers and implanted intraperitoneal or subcutaneously into nude mice. […] Similarly, mice are being treated by oral and intravenous administration of temacrazine. Peritoneal washes and serum samples were collected and p24 expression determined by antigen capture. Intraperitoneal administration of temacrazine reduced the amount of detectable p24 in peritoneal washes by 5 to 10 fold independently of the dosage schedule. […] Thus, temacrazine reduces HIV-1 replication in vivo.

HIV-1 integrase = HIV-1 integrase (Human immunodeficiency virus type 1 group M subtype B, UniProt P04585); test: 3'-processing and strand transfer with recombinant integrase; assay type: biochemical; parameters: in vitro assay using purified oligomers and recombinant HIV-1 integrase
Excerpt: as §2

U1 cells = test: viability of U1 cells; assay type: cell-based; conditions: 48 h
Procedure: As a model of the late phase events during the HIV-1 replication cycle, U1 cells were used that are latently infected with two copies of HIV-1 proviral DNA. The high level expression of virus production in these U1 cells can be stimulated by certain factors, such as TNF-α. U1 cells were stimulated with TNF-α for 24 hours, after which were added various concentrations of temacrazine, and the cultures were allowed to incubate for 48 additional hours. At that time, the cells were evaluated for viability and for their content of viral protein synthesis and processing, while the cell-free supernatant was evaluated for viral p24 content and for the infectious titer of released virions. […] Cell viability was diminished above 30 nM with these U1 cells.

HIV-1 protease = HIV-1 protease (Human immunodeficiency virus type 1 group M subtype B, UniProt P04585); test: protease activity, HPLC-based assay; assay type: biochemical
HIV-1 = test: XTT cytoprotection assay in CEM-SS cells (antiviral EC50); assay type: cell-based
Excerpt: Briefly, the infected cells in culture are killed by the virus, and the cytotoxicity is detected by the formation of color due to the […] of a formazan dye (XTT) by enzymes released by the dying cells (Weislow et al., J. Natl. Cancer Inst. 81:577-586, 1989). An effective antiviral drug is able to protect the infected cells from cytotoxicity by inhibiting some vital function of the virus. […] FIGS. 4 and 5 show the cytoprotective activity of WMC26 and WMC42. Since many drugs can also be toxic to cells in their own right, a parallel experiment is carried out wherein uninfected cells are treated with the drugs until a concentration is reached where the cells are killed by the action of the drug.
(§3) As a result of these preliminary data, additional experiments were carried out to establish the antiviral activity in other cell lines, using a variety of protocols. The preliminary experiments in lymphocytes were confirmed using infected macrophages. Much more extensive experiments were carried out in HIV-1-infected CEM SS leukemia cells. […] However, two derivatives were found which had low antileukemic activity while maintaining high antiviral activity. […] This gives a therapeutic index of more than 3 orders of magnitude. The corresponding therapeutic index for WMC50 is about 100-200, which is quite acceptable. Additional experiments were carried out on WMC-70. […] Further, WMC-70 appears to affect post-transcription events in the virus. […] While the inhibition of integration appears to be the principal mechanism by which this compound exerts its antiviral activity, there are perhaps other mechanisms which are also involved in the therapeutic action of this drug, and by extension, of other antiviral drugs of this class.
as §1

[3] = test system: HIV-1 proviral DNA formation (LTR/gag); test: time course assay of proviral DNA formation; assay type: cell-based; conditions: amplified LTR/gag region
CEM-SS cells = test: 3H precursor incorporation in CEM-SS cells; assay type: cell-based
HIV-1 virus = test: direct treatment of HIV-1 virus, infection of CEM cells; assay type: cell-based
Procedure: as §3

[4] = 8.5 mg/kg q8h intraperitoneally
[5] = 12.5 mg/kg q12h intraperitoneally
[6] = 25 mg/kg q24h intraperitoneally

**Q.** How did the IC50 [1] turn out when `O=c1c2ccccc2n2nnc3ccc(NCCCN4CCN(CCCNc5ccc6nnn7c8ccccc8c(=O)c5c67)CC4)c1c32` [temacrazine] was run?
**A.** The IC50 was 10000 nM.

**Q.** What about the “PBGD (house keeping gene) expression” value (HIV-1 mRNA) of the same compound?
**A.** The value was “did not decrease”.

**Q.** And the “expression of unspliced or singly spliced mRNA” value (HIV-1 mRNA; 500 and 50 nM, prior to or 24 h after TNFα induction)?
**A.** Its value is “completely inhibited”.

**Q.** And the “expression of HIV-1 multispliced transcripts” value (HIV-1 mRNA; RT-PCR, rev independent mRNAs)?
**A.** Its value is “did not alter”.

**Q.** And the IC50 [2]?
**A.** The IC50 was greater than 100000 nM.

**Q.** And the “inhibition of reverse transcriptase” value [2]?
**A.** Its value is “did not inhibit”.

**Q.** And the IC50 ([2]; read-out: I50 RT Enzyme Activity, rAdT Template/primer)?
**A.** Its IC50 is greater than 100000 nM.

**Q.** And the IC50 ([2]; read-out: I50 RT Enzyme Activity, rCdG Template/primer)?
**A.** The IC50 was greater than 100000 nM.

**Q.** What about the “Peritoneal Wash p24, mean” value (HIV-1RF; [4]) of the same compound?
**A.** Its value is 460 pg p24.

**Q.** And the “Serum p24, mean” value (HIV-1RF; [4])?
**A.** Its value is 1790 pg p24.

**Q.** And the “Peritoneal Wash p24, mean” value (HIV-1RF; [5])?
**A.** Its value is 190 pg p24.

**Q.** What about the “Serum p24, mean” value (HIV-1RF; [5]) of the same compound?
**A.** The value was 1863 pg p24.

**Q.** And the “Peritoneal Wash p24, mean” value (HIV-1RF; [6])?
**A.** The value was 593 pg p24.

**Q.** And the “Serum p24, mean” value (HIV-1RF; [6])?
**A.** The value was 2030 pg p24.

**Q.** What about the “p24 in the serum” value (HIV-1RF; intraperitoneal, total 25 mg/kg per day for 6 days) of the same compound?
**A.** The value was “reduced the amount of p24 in the serum”.

**Q.** What about the “reduction of detectable p24 in peritoneal washes” value (HIV-1RF; intraperitoneal, total 25 mg/kg per day for 6 days, any schedule) of the same compound?
**A.** Its value is 5 to 10 fold.

**Q.** What about the IC50 (HIV-1 integrase) of the same compound?
**A.** Its IC50 is 10 to 100 nM.

**Q.** And the EC50 (HIV-1 integrase; read-out: EC50, 3'-processing and strand transfer activity, purified oligomers, recombinant HIV-1 integrase)?
**A.** Its EC50 is 10 to 100 nM.

**Q.** What about the “concentration above which cell viability was diminished” value (U1 cells) of the same compound?
**A.** The value was “above 30 nM”.

**Q.** What about the “inhibition of HIV protease” value (HIV-1 protease) of the same compound?
**A.** The value was “did not inhibit”.

**Q.** What about the therapeutic index (HIV-1; CEM SS cells) of the same compound?
**A.** The therapeutic index was “more than 3 orders of magnitude”.

**Q.** What about the cytoprotective activity (HIV-1; HIV-1-infected CEM SS leukemia cells) of the same compound?
**A.** The cytoprotective activity was “cytoprotective at very low concentrations”.

**Q.** And the EC50 (HIV-1; Human immunodeficiency virus 1, CEM-SS, read-out: EC50 (inhibits the cytotoxic effect of the virus to 50%))?
**A.** Its EC50 is less than 1 nM.

**Q.** And the EC50 (HIV-1; Human immunodeficiency virus 1, CEM-SS, read-out: XTT Assay EC50)?
**A.** The EC50 was 1.1 nM.

**Q.** And the EC50 (HIV-1; Human immunodeficiency virus 1, CEM-SS cells, read-out: EC50 antiviral value, XTT cytoprotection assay)?
**A.** The EC50 was 1.1 nM.

**Q.** What about the “formation of proviral DNA during reverse transcription” value [3] of the same compound?
**A.** Its value is “did not prevent the formation of proviral DNA”.

**Q.** What about the “incorporation of 3H Leucine (protein metabolism)” value (CEM-SS cells) of the same compound?
**A.** Its value is “no effect”.

**Q.** And the “incorporation of 3H Thymidine (DNA replication)” value (CEM-SS cells)?
**A.** Its value is “no effect”.

**Q.** And the “incorporation of 3H Uridine (RNA production)” value (CEM-SS cells; CEM-SS cells)?
**A.** The value was “no effect”.

**Q.** And the “infectivity of drug-treated HIV-1 virus” value (HIV-1 virus)?
**A.** The value was “appeared to prevent its ability to infect CEM cells”.
